One series deals with UGT2B17 (Homo sapiens, UniProt O75795). The series is described as follows: Glucuronidation screen, UGT2B17-over-expressing cell homogenate. The class given is in vitro ADME. The conditions noted are these: 160 μM CLZ or 320 μM dmCLZ; up to 1 mg cell homogenate.
In another series the target is UGT2B10 (Homo sapiens, UniProt P36537). The series is described as follows: Glucuronidation screen, UGT2B10-over-expressing cell homogenate. The class given is in vitro ADME. The conditions noted are these: 160 μM CLZ or 320 μM dmCLZ; up to 1 mg cell homogenate; UV and MRM detection.
UGT2B10, sequence (P36537 24-528): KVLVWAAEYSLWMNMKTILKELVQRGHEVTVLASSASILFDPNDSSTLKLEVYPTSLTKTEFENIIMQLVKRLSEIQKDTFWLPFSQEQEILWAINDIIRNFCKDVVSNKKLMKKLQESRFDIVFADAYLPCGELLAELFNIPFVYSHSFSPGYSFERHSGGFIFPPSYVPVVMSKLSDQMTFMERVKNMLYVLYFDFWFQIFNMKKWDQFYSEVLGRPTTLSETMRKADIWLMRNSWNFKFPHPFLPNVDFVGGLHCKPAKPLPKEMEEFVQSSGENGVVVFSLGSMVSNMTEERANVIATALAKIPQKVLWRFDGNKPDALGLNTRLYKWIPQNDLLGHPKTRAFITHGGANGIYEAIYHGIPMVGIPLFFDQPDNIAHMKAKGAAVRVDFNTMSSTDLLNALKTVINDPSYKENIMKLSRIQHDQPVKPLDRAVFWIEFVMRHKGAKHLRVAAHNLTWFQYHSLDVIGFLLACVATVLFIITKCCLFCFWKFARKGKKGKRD
The next series concerns the target T1, UGT1A4^24Pro/48Leu (Homo sapiens, UniProt P22310).
T1 sequence (P22310 29-534): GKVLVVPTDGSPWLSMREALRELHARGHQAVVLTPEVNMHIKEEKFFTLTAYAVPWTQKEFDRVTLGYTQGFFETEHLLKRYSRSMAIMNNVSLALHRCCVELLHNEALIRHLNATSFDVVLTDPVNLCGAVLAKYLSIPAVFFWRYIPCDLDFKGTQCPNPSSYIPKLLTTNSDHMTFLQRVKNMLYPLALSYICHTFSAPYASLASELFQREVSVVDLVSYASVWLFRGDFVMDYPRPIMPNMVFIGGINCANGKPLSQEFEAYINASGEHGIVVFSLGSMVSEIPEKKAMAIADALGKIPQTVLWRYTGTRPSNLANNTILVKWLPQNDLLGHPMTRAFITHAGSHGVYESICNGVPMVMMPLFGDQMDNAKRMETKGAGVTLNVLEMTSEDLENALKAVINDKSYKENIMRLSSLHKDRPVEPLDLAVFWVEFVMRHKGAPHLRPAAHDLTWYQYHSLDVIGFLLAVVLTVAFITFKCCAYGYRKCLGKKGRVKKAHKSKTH
The series is described as follows: Glucuronidation by wild-type UGT1A4-over-expressing HEK 293 cell homogenate. As to conditions: 160 μM CLZ or 320 μM dmCLZ; up to 1 mg cell homogenate; UV and MRM detection.

Another series concerns the target UGT2B7 (Homo sapiens, UniProt P16662). The series is described as follows: Glucuronidation screen, UGT2B7-over-expressing cell homogenate. The class given is in vitro ADME. The conditions noted are these: 160 μM CLZ or 320 μM dmCLZ; up to 1 mg cell homogenate.
The conditions of series [1]: cited from earlier work.
For a further series, the target named is UGT1A7 (Homo sapiens, UniProt Q9HAW7). The series is described as follows: Glucuronidation screen, UGT1A7-over-expressing cell homogenate. Format: in vitro ADME. As to conditions: 160 μM CLZ or 320 μM dmCLZ; up to 1 mg cell homogenate.
UGT1A7, sequence (Q9HAW7 26-530): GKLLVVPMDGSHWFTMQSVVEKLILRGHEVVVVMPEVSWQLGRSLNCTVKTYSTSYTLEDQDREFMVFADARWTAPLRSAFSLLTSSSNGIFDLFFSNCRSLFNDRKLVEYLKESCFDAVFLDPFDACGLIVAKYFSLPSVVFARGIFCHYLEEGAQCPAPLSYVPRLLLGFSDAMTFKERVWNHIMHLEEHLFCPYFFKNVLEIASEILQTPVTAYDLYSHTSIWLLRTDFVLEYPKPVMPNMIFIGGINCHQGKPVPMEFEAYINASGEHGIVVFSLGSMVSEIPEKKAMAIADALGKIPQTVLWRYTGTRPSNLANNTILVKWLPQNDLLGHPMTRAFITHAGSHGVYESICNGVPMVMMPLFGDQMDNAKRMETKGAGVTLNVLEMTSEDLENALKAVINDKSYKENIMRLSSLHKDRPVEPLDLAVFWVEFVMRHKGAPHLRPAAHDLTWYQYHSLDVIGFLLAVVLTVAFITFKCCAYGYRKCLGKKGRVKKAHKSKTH
The target in the next series is UGT1A6 (Homo sapiens, UniProt P19224). The series is described as follows: Glucuronidation screen, UGT1A6-over-expressing cell homogenate. Format: in vitro ADME. As to conditions: 160 μM CLZ or 320 μM dmCLZ; up to 1 mg cell homogenate.
UGT1A6, sequence (P19224 27-532): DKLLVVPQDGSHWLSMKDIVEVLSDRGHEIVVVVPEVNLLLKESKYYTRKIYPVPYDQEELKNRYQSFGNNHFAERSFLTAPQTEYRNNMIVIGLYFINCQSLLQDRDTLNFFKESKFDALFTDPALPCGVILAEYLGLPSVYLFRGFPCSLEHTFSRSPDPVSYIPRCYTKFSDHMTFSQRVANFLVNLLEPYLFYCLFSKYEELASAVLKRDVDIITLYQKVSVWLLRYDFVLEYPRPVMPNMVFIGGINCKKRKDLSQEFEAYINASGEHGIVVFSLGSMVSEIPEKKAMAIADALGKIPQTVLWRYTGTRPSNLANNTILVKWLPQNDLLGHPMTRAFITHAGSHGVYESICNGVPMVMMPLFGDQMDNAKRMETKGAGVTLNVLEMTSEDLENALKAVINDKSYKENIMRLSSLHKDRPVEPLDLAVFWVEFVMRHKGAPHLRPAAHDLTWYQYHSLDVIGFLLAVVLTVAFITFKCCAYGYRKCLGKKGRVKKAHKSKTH
Another series concerns the target UGT1A10 (Homo sapiens, UniProt Q9HAW8). The series is described as follows: Glucuronidation screen, UGT1A10-over-expressing cell homogenate. The class given is in vitro ADME. The conditions noted are these: 160 μM CLZ or 320 μM dmCLZ; up to 1 mg cell homogenate.
The next series addresses T2, UGT1A1 (Homo sapiens, UniProt P22309).
T2 sequence (P22309 26-533): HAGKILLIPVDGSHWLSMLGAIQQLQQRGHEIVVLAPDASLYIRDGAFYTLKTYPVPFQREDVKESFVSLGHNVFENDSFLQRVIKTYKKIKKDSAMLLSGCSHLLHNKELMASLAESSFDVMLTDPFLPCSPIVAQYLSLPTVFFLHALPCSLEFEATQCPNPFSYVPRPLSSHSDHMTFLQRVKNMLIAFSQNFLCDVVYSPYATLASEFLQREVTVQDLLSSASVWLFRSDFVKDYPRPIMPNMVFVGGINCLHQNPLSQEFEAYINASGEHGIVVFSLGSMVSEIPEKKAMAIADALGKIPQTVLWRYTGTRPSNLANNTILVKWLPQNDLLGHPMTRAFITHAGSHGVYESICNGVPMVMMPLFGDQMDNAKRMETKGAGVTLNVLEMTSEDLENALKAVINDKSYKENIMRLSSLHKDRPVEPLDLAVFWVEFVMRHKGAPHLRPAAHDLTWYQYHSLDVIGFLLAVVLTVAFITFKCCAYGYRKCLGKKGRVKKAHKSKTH
The series is described as follows: Glucuronidation by UGT1A1-over-expressing HEK 293 cell homogenate. As to conditions: 160 μM CLZ or 320 μM dmCLZ; up to 1 mg cell homogenate; UV and MRM detection.

For the next series, the target named is UGT1A8 (Homo sapiens, UniProt Q9HAW9). The series is described as follows: Glucuronidation screen, UGT1A8-over-expressing cell homogenate. Format: in vitro ADME. The conditions noted are these: 160 μM CLZ or 320 μM dmCLZ; up to 1 mg cell homogenate.
Another series addresses UGT2B4 (Homo sapiens, UniProt P06133). The series is described as follows: Glucuronidation screen, UGT2B4-over-expressing cell homogenate. The class given is in vitro ADME. The conditions noted are these: 160 μM CLZ or 320 μM dmCLZ; up to 1 mg cell homogenate.
The target in another series is UGT1A9 (Homo sapiens, UniProt O60656). The series is described as follows: Glucuronidation screen, UGT1A9-over-expressing cell homogenate. The conditions noted are these: 160 μM CLZ or 320 μM dmCLZ; up to 1 mg cell homogenate. The class given is in vitro ADME.
A further series addresses T3, UGT1A4^24Thr/48Leu (Homo sapiens, UniProt P22310).
T3 sequence (P22310 29-534): T1 sequence (P22310 29-534)
The series is described as follows: Glucuronidation by UGT1A4 24Thr/48Leu variant-over-expressing cell homogenate. The conditions noted are these: vs wild-type UGT1A4^24Pro/48Leu.

In the next series the target is UGT1A3 (Homo sapiens, UniProt P35503). The series is described as follows: Glucuronidation screen, UGT1A3-over-expressing cell homogenate. The class given is in vitro ADME. The conditions noted are these: 160 μM CLZ or 320 μM dmCLZ; up to 1 mg cell homogenate; UV and MRM detection.
UGT1A3, sequence (P35503 29-534): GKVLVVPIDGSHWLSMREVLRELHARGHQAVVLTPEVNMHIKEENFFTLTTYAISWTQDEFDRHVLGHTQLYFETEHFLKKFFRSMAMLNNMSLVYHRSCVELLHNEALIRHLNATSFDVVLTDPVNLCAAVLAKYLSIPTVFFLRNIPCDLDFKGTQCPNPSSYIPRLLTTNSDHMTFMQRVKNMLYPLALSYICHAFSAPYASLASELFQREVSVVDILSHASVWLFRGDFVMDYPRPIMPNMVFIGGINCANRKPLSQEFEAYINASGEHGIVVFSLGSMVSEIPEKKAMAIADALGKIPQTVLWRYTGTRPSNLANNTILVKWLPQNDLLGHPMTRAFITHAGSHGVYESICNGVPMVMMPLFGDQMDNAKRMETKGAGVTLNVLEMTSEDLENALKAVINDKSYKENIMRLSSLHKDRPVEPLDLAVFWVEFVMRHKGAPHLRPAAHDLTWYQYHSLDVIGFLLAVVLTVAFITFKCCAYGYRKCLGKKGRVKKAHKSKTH
For another series, the target named is T4, UGT1A4^24Pro/48Val (Homo sapiens, UniProt P22310, L48V).
T4 sequence (P22310 29-534 L48V): T1 sequence (P22310 29-534) with L20V
The series is described as follows: Glucuronidation by UGT1A4 24Pro/48Val variant-over-expressing cell homogenate.

The target of the next series is UGT2B11 (Homo sapiens, UniProt O75310). The series is described as follows: Glucuronidation screen, UGT2B11-over-expressing cell homogenate. Format: in vitro ADME. The conditions noted are these: 160 μM CLZ or 320 μM dmCLZ; up to 1 mg cell homogenate.
UGT2B11, sequence (O75310 22-529): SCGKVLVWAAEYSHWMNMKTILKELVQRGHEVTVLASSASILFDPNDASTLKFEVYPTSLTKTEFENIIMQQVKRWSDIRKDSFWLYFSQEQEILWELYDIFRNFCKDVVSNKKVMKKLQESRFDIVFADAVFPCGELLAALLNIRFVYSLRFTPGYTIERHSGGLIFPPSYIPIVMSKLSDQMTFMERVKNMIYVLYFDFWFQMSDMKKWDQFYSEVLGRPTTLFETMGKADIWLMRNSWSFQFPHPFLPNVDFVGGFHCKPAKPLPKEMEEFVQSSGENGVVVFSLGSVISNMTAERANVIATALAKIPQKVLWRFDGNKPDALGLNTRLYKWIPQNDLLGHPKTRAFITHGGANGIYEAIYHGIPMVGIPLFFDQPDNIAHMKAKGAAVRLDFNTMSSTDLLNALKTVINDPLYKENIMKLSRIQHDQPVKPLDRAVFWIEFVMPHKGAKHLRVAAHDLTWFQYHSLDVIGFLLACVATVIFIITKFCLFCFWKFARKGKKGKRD
In the next series the target is UGT2B15 (Homo sapiens, UniProt P54855). The series is described as follows: Glucuronidation screen, UGT2B15-over-expressing cell homogenate. The class given is in vitro ADME. As to conditions: 160 μM CLZ or 320 μM dmCLZ; up to 1 mg cell homogenate.
The subject of series [2] is Human liver microsomes (HLM). Format: biochemical. The conditions noted are these: 10 μM hecogenin; 160 μM CLZ; HLM.
The next series has as its target T5, UGT1A4 (Homo sapiens, UniProt P22310).
T5 sequence (P22310 29-534): T1 sequence (P22310 29-534)
The series is described as follows: Inhibition of glucuronide formation in UGT1A4-over-expressing cell homogenates. The class given is biochemical. As to conditions: 10 μM hecogenin.

Substrate in series [3]: CN1CCN(C2=Nc3cc(Cl)ccc3Nc3ccccc32)CC1
The series is described as follows: cells, lysate or membranes named. The conditions noted are these: other: substrate CLZ.

Substrate in series [4]: Clc1ccc2c(c1)N=C(N1CCNCC1)c1ccccc1N2
The series is described as follows: cells, lysate or membranes named. As to conditions: other: substrate dmCLZ.

Numbering of substitutions follows the chain as printed. Numbers in names are those of the source. Where “and” joins values, the source holds several entries; their conditions need not be identical. Equal values may be shown once. Entries after “also recorded” stand apart in the source; their conditions may differ. Marks after values point to notes of the source that are not given here.

UGT2B4, sequence (P06133 24-528): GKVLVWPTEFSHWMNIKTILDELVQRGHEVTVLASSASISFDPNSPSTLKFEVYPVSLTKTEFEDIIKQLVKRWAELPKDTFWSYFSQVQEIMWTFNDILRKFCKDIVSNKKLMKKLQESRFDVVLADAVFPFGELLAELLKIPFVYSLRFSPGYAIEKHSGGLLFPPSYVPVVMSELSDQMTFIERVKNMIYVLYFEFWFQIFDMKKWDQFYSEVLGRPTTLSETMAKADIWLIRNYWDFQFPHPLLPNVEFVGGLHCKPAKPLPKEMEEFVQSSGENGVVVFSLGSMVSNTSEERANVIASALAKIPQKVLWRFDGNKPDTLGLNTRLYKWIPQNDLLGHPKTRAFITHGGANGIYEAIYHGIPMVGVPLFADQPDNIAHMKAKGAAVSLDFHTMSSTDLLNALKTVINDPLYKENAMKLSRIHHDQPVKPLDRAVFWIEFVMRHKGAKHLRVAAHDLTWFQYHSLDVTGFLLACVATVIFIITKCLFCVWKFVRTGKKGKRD
UGT2B17, sequence (O75795 24-530): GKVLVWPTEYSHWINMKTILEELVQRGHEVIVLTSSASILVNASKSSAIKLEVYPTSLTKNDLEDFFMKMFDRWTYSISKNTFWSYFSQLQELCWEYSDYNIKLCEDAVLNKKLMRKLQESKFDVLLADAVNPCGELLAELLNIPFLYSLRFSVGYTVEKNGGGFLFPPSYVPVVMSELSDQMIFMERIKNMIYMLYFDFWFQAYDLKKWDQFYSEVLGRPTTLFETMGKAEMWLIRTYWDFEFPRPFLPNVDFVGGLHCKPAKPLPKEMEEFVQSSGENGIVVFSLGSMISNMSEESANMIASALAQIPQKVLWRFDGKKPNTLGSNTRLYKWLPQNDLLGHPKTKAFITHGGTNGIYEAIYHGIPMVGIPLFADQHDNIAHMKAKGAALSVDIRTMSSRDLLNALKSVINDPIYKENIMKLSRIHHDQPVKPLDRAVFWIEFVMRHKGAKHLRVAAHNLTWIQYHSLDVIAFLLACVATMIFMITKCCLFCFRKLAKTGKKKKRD
UGT2B7, sequence (P16662 24-529): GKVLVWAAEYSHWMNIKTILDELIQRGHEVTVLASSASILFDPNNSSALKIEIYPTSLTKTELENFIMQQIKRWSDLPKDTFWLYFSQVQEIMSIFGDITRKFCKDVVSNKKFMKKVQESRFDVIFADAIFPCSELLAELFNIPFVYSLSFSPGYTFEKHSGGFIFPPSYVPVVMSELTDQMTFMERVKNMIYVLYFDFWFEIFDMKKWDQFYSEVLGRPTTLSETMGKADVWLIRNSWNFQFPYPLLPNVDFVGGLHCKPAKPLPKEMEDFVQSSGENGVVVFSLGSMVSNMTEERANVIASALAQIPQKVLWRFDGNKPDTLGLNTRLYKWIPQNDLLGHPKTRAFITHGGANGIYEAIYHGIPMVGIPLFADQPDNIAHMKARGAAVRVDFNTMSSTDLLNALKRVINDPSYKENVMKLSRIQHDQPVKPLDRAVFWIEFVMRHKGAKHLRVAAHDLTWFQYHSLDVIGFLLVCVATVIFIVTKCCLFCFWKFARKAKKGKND
UGT1A10, sequence (Q9HAW8 26-530): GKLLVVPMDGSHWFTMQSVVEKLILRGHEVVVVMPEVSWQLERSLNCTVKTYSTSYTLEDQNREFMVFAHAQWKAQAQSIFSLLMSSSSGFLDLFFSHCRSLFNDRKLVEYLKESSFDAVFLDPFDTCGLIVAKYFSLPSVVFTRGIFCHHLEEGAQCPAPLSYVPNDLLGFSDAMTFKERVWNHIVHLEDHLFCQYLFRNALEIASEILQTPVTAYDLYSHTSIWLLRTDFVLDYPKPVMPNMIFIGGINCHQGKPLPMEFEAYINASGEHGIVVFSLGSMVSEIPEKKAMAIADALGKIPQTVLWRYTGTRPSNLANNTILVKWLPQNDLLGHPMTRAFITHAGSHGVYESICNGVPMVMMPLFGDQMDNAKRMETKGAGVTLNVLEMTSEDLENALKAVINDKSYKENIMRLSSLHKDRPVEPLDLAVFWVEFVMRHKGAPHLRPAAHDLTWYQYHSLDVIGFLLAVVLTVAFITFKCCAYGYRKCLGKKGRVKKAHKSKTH

For `CN1CCN(C2=Nc3cc(Cl)ccc3Nc3ccccc32)CC1` [CLZ, Clozapine, reference compound], the “detectable glucuronidation activity (screen)” value was “None” on UGT2B17; “detectable levels of activity; also recorded: barely above the limits of detection” on UGT2B10; “detectable levels of activity” on UGT1A4^24Pro/48Leu; “None” at UGT2B7; “None” on UGT1A7; “None” on UGT1A6. Also, the “detectable glucuronidation activity (screen)” value on UGT1A10 is listed as “None”; on UGT1A1, “detectable levels of activity”; on UGT1A8, “None”; on UGT2B4 it was “None”; at UGT1A9, “None”; on UGT1A3, “detectable levels of activity; also recorded: barely above the limits of detection”. Also, the “detectable glucuronidation activity (screen)” value on UGT2B11 and on UGT2B15 was “None” throughout. Further, the “administered dose being metabolized” value in [1] was 97%. In addition, the “patients who fail to respond to CLZ treatment despite adequate dosing” value in series [1] is listed as “Approximately 30%”. Also, the “CLZ and dmCLZ glucuronides, share of all recovered metabolites in urine and bile” value in [1] (human subjects taking CLZ) is 33–38%. Further, the “plasma concentrations (inter-individual variability for a given dose of CLZ)” value in [1] (patients) was 3 to 1507 ng/mL. On UGT1A4^24Thr/48Leu, the “decrease in Vmax, CLZ-5-N-glucuronide formation” value stood at 21%. On UGT1A4^24Thr/48Leu, the “lower Vmax/KM, CLZ-5-N-glucuronide formation” value is reported as 20%. The “decrease in KM, CLZ-5-N-glucuronide formation” value turned out to be 56% on UGT1A4^24Pro/48Val (vs UGT1A4^24Thr/48Leu variant) and 58% on UGT1A4^24Pro/48Val (vs wild-type UGT1A4^24Pro/48Leu).
On to hecogenin, for which, in [2], the “inhibition of CLZ-5-N-glucuronide formation” value amounted to 89 ± 3% and the “inhibition of CLZ-N^+-glucuronide formation” value is given as 46 ± 5%. Further, at UGT1A4 (160 μM CLZ), the “inhibition of CLZ-5-N-glucuronide formation” value came to 77% and the “inhibition of CLZ-N^+-glucuronide formation” value worked out at 82%. On UGT1A4 (320 μM dmCLZ), the “inhibition of dmCLZ-5-N-glucuronide formation” value worked out at 81%.

B1: UGT1A4^24Thr/48Leu (Homo sapiens) (protein)
chain: MARGLQVPLPRLATGLLLLLSVQPWAESGKVLVVPTDGSPWLSMREALRELHARGHQAVVLTPEVNMHIKEEKFFTLTAYAVPWTQKEFDRVTLGYTQGFFETEHLLKRYSRSMAIMNNVSLALHRCCVELLHNEALIRHLNATSFDVVLTDPVNLCGAVLAKYLSIPAVFFWRYIPCDLDFKGTQCPNPSSYIPKLLTTNSDHMTFLQRVKNMLYPLALSYICHTFSAPYASLASELFQREVSVVDLVSYASVWLFRGDFVMDYPRPIMPNMVFIGGINCANGKPLSQEFEAYINASGEHGIVVFSLGSMVSEIPEKKAMAIADALGKIPQTVLWRYTGTRPSNLANNTILVKWLPQNDLLGHPMTRAFITHAGSHGVYESICNGVPMVMMPLFGDQMDNAKRMETKGAGVTLNVLEMTSEDLENALKAVINDKSYKENIMRLSSLHKDRPVEPLDLAVFWVEFVMRHKGAPHLRPAAHDLTWYQYHSLDVIGFLLAVVLTVAFITFKCCAYGYRKCLGKKGRVKKAHKSKTH
Broadly, the Km is the substrate concentration at which the rate is half of its maximum. As a reminder, the Vmax is the rate approached at saturating substrate. In the case of B1, in series [3], the Km was 167 ± 19^d μM and 459 ± 23^e μM. Besides, in series [4], the Km is given as 440 ± 45^b μM, the Vmax was 0.0064 ± 0.0009 µmol/min/mg and the Vmax/Km was 15 ± 1.5 µL/min/mg.

B2: UGT1A4^24Pro/48Leu (Homo sapiens) (protein)
chain: T1 sequence (P22310 29-534)
B2: in series [4], the Km stood at 379 ± 46 µM, the Vmax came to 0.01 µmol/min/mg and the Vmax/Km turned out to be 28 µL/min/mg.

B3: UGT1A4^24Pro/48Val (Homo sapiens; L48V) (protein)
chain: T1 sequence (P22310 29-534) with L20V
With B3, in series [4], the Km was 173 ± 22^e μM, the Vmax stood at 0.017 ± 0.0013 µmol/min/mg and the Vmax/Km is 96 ± 8 µL/min/mg.

B4: UGT1A1 (Homo sapiens) (protein)
chain: T2 sequence (P22309 26-533)
In the case of B4, in series [3], the Km is on record as 53 ± 2^a,b μM, the Vmax stood at 0.00086 ± 2e-05 µmol/min/mg and the Vmax/Km was determined as 17 ± 0.6 µL/min/mg.

The values are drawn from PMC6278935 (Pharmacogenetics and genomics, 2012).
